# Laboratory results reported in patent US20230390463A1, “TISSUE SCAFFOLDS” (JD BIOMEDICAL SOLUTIONS LTD., priority 2020, published 2023).
# Read-outs that look alike come from different tables or passages of the source.
# Experiments:
# [1] = Hydrophilic-lipophilic balance (HLB); assay type: physicochemical; settings: experimentally determined required HLB range
# Description: As understood herein, the term “hydrophilic-lipophilic balance (HLB)” describes the ratio between the size of the hydrophilic and lipophilic regions of a surfactant molecule. The empirically derived formula: […]
# Was introduced for alkyl ethoxylates (Griffin W. C. J. Soc. Cosmet. Chem., 5 (1954), p. 249.) The HLB of more complex surfactant structures is found using a systematic approach based on chemical group assignments (Davies J. T., Rideal E. K. Interfacial Phenomena Academic Press, New York (1961), pp. 371-378):
# HLB=7+Σ(Hydrophile group number)−Σ(lipophile group number)
# A water-in-oil emulsion (w/o) has […]. An oil-in-water (o/w) emulsion has […]. The propensity for formation of a w/o or o/w emulsion is determined by the balance of hydrophobicity and hydrophilicity of the solutions in the mixture. This may be determined using the HLB scale. Oleic phase reagents are assigned an HLB number, determined experimentally, that allows for selection of an appropriate surfactant to cause emulsification with the aqueous phase. […] HLB as understood herein is a semi-quantitative measure of the relative molecular weights of the hydrophilic and lipophilic regions of a surfactant molecule assigned on a scale from 0.5 (extremely lipophilic) to 19.5 (extremely hydrophilic).
# [2] = surfactant, cited from earlier work
# [3] = Oil carrying capacity (oil fraction at lowest TSI); assay type: physicochemical; settings: decane / MES-NaCl buffer, 0.1% (v/v) surfactant, 37° C.
# Description: The proposed system of determining the oil fraction at which optimum emulsion stability occurs, the ‘oil carrying capacity’ (OCC) of the surfactant, is intended as a tool for surfactant selection in a system where the desired oil fraction is known. Equally, it may be used to optimise oil fraction ‘carried’ in the emulsion when a particular surfactant is required. It is a practical tool to be used in conjunction with other metrics, such as HLB, but its simplicity and broad application make it versatile and easy to implement to formulation practice.
# The oil fraction at the lowest TSI after 15 minutes was identified as the ‘oil carrying capacity’ (OCC) of that surfactant. Further oil/buffer/surfactant mixtures were prepared at 5% oil fractions either side of this minimum (i.e. an initial minimum of 70% oil fraction would be tested then at 65% and 75% oil fraction).
# [4] = system: h-tert human mesenchymal stem cells; experiment: Cyto-compatibility of scaffolds (CCK-8, contact and leachable assay); assay type: cell-based; settings: acute (24 h) and chronic (120 h) exposure; surfactant at 0.1% v/v in media
# Method: Cylindrical samples were cut with an 8 mm biopsy punch (n=3) were cut from two scaffolds. […] At 24 h (acute response time) and 120 h (chronic response time), 300 μl DMEM/CCK-8 (10:1) was added and incubated for 4 hours at 37° C. before reading absorbance at 450 nm. Two scaffolds of the same composition (D3, D4) from different manufacturing batches (0.1% Tx-165 surfactant, 90% porous, 2:1 fibrin: PVA, 2% fibrinogen) were tested with triplicate samples from each. […] This material is known to be non-cytotoxic, verified with both in vitro and in vivo assays.
# [5] = Turbiscan emulsion stability (TSI) of decane/buffer emulsions stabilised with surfactant; assay type: physicochemical; settings: 0.1% (v/v) surfactant, 15 mins after mixing
# [6] = as above; assay type: physicochemical; settings: 0.1% (v/v) surfactant, 15 mins after mixing; remark: listed apart in the source
# Description: Stability was herein reported using the Turbiscan™ stability index (TSI). This non-destructive, non-invasive technique gives the stability of the sample over its whole selected height as a function of transmitted and backscattered light compared to the same measurements at the previous timepoint. Kinetic stability is built up over sequential scans. The pattern of change across the height of the sample gives a ‘fingerprint’ characteristic of the mode of destabilisation. TSI is defined in equation 1: […]
# where scani is the backscattering value at a given timepoint, scani-1 is the backscattering value from the previous timepoint, h is the height of the scan and H is the total sample height from the first to the last scan. TSI is the sum of the differences between sequential scans and thus represents the stability of the sample over a defined timeframe. TSI reduces with increasing stability.
# Stock solutions of surfactants were prepared in 7 ml polystyrene bijou by dispersing 0.1% (v/v) surfactant in decane so that surfactant scaled with oil fraction. These stock solutions were shaken briefly to disperse the surfactants before adding the deionised water. 4 ml mixtures were prepared in triplicate for each surfactant at various oil fractions (50, 60, 70, 80, 90% v/v oil-surfactant). Each sample was vortexed for 1 minute using WhirliMixer™ (Fisherbrand) to homogenise immediately prior to stability measurements.
# 3 ml of the sample was pipetted into a borosilicate glass cuvette, taking care to maintain a clean meniscus, and analysed using Turbiscan™ LAB Analyser (Formulation, Toulouse, France) scanning every 30 seconds for a total of 15 minutes.
# Turbiscan stability index (TSI) was plotted for each surfactant as a function of oil fraction in the emulsion preparation, HLB, or time. Lower TSI indicates less change in the transmitted light, or less change in particle size and position.
# Stability was measured using the Turbiscan™ static multiple light scattering analyser and expressed using the Turbiscan stability index (TSI) which reflects the change in transmitted and backscattered light across the height of a sample over a period of time. A higher value of TSI reflects poorer stability; a lower value reflects greater stability. However, because TSI measures rate of change, emulsions which break instantly after mixing ceases can display low TSI values.
compound,measurement,setting,value
CCCCCCCCCC [decane],required HLB of the decane oil phase,[1],10-13
C11-15 pareth-7 [Tergitol 15-S-7],HLB,[2],12.1
C11-15 pareth-9 [Tergitol 15-S-9],HLB,[2],13.3
same,HLB,[2]; listed as Tergitol T-S-9,~13
C11-15 pareth-15 [Tergitol 15-S-15],HLB,[2],15.4
Ethylene oxide-propylene oxide copolymer mono(2-ethylhexyl) ether [Ecosurf EH-9],HLB,[2],12.5
Nonylphenol ethoxylate [Tergitol NP-10],HLB,[2],13.2
Octylphenol ethoxylate [Triton N-101 reduced],HLB,[2],14.4
Octylphenol ethoxylate [Triton X-102],oil fraction at maximum stability (oil carrying capacity),[3],70%
Octylphenol ethoxylate [Triton X-165],cytotoxicity,[4],cytotoxic in itself
Polyethylene glycol 4-tert- octylphenyl ether [Triton X-45],HLB,[2],9.8
Polyethylene glycol 4-tert-octylphenyl ether [Triton X-100 reduced],HLB,[2],9.8
Polyethylene glycol tert- octylphenyl ether [Triton X-100],HLB,[2],13.4
same,oil fraction at maximum stability (oil carrying capacity),[3],70%
same,Turbiscan stability index (TSI),"[5]; 75% v/v decane, mixing speed 1000 rpm",3.571
same,Turbiscan stability index (TSI),"[5]; 75% v/v decane, mixing speed 2000 rpm",2.601
same,Turbiscan stability index (TSI),"[5]; 75% v/v decane, mixing speed 3000 rpm",2.723
same,Turbiscan stability index (TSI),"[5]; 75% v/v decane, mixing speed 4000 rpm",3.213
same,Turbiscan stability index (TSI),"[5]; 75% v/v decane, mixing speed 5000 rpm",2.398
same,Turbiscan stability index (TSI),"[5]; 80% v/v decane, mixing speed 4000 rpm",9.886
same,Turbiscan stability index (TSI),"[6]; 70% v/v decane, mixing speed 1000 rpm",3.189
same,Turbiscan stability index (TSI),"[6]; 70% v/v decane, mixing speed 2000 rpm",2.758
same,Turbiscan stability index (TSI),"[6]; 70% v/v decane, mixing speed 3000 rpm",8.763
same,Turbiscan stability index (TSI),"[6]; 70% v/v decane, mixing speed 4000 rpm",3.637
same,Turbiscan stability index (TSI),"[6]; 70% v/v decane, mixing speed 5000 rpm",2.705
same,Turbiscan stability index (TSI),"[6]; 80% v/v decane, mixing speed 1000 rpm",2.483
same,Turbiscan stability index (TSI),"[6]; 80% v/v decane, mixing speed 2000 rpm",2.225
same,Turbiscan stability index (TSI),"[6]; 80% v/v decane, mixing speed 3000 rpm",2.493
same,Turbiscan stability index (TSI),"[6]; 80% v/v decane, mixing speed 5000 rpm",5.128
Polyethylene glycol tert-octylphenyl ether [Triton X-114 reduced],HLB,[2],13.4
Polyethylene glycol tert-octylphenyl ether [Triton X-114],HLB,[2],12.3
same,oil fraction at maximum stability (oil carrying capacity),[3],70%
Polyethylene glycol trimethylnonyl ether [Tergitol TMN-6],HLB,[2],13.1
Polyethylene glycol trimethylnonyl ether [Tergitol TMN-10],HLB,[2],14.4
Polyoxyethylene (40) isooctylphenyl ether [Triton X-405],HLB,[2],17.6
same,oil fraction at maximum stability (oil carrying capacity),[3],70%
